Measured values published in ChEMBL document CHEMBL6103643, “Total Synthesis of (-)- and (+)-Talaroenamine B and Diphenylene Derivatives” (J Nat Prod, 2025).
Structures can show the parent of a compound that is named as a salt.

Key:
NCI-H446 = assay: Cytotoxicity against human NCI-H446 cells assessed as inhibition of cell growth by SRB assay; type: functional, cell-based
[1] = Cytotoxicity against human Cisplatin/etoposide-resistant NCI-H446/EP cells assessed as inhibition of cell growth by SRB assay; type: functional, cell-based
[2] = Cytotoxicity against human L02 cells assessed as inhibition of cell growth by SRB assay; type: toxicity, cell-based
Acetylcholinesterase = Acetylcholinesterase (Homo sapiens, UniProt P22303); assay: Inhibition of AChE (unknown origin) by Ellman's method
ASPC1 = assay: Cytotoxicity against human ASPC1 cells assessed as inhibition of cell growth by SRB assay; type: functional, cell-based
K562 = assay: Cytotoxicity against human K562 cells assessed as inhibition of cell growth by MTT assay; type: functional, cell-based
[3] = Selectivity index, ratio of IC50 for cytotoxicity against human L02 cells to IC50 for cytotoxicity against human K562 cells; type: toxicity, cell-based; details: L02 cells and K562 cells, read-out: Ratio IC50

Sequence of Acetylcholinesterase (P22303 whole entry): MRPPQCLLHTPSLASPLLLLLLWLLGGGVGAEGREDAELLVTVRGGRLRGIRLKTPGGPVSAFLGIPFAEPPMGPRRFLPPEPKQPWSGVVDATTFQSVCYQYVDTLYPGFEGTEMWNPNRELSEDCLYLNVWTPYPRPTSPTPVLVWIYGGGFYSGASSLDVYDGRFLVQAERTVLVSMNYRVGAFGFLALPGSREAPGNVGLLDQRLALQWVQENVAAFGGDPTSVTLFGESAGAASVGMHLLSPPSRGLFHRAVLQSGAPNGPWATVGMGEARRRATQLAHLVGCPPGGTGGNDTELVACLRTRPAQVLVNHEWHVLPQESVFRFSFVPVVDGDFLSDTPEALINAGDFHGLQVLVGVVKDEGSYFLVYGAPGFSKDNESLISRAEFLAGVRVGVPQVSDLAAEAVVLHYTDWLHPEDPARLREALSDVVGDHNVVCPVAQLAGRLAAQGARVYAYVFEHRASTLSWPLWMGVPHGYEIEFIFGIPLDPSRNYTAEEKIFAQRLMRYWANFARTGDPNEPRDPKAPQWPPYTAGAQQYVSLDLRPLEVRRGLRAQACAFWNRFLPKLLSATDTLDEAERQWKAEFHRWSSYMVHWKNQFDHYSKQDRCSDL

| Compound | IC50 (NCI-H446) [µM] | IC50 [1] [µM] | IC50 [2] [µM] | IC50 (Acetylcholinesterase) [µM] | IC50 (ASPC1) [µM] | IC50 (K562) [µM] | selectivity ratio [3] |
| --- | --- | --- | --- | --- | --- | --- | --- |
| CC1=CC(=O)[C@@](C)(O)C(=O)/C1=C\Nc1ccccc1 | > 30 | > 30 | > 30 | > 100 | > 30 | > 30 | – |
| CC1=CC(=O)[C@](C)(O)C(=O)/C1=C\Nc1ccc(Oc2ccc(C#N)cc2)cc1 | > 30 | > 30 | > 30 | 24.4 | > 30 | > 30 | – |
| CC1=CC(=O)[C@](C)(O)C(=O)/C1=C\Nc1ccc(Oc2ccc(C)cc2)cc1 | > 30 | > 30 | 19.8 | > 100 | > 30 | > 30 | – |
| CC1=CC(=O)[C@@](C)(O)C(=O)/C1=C\Nc1ccc(Oc2ccc(C#N)cc2)cc1 | > 30 | > 30 | > 30 | 4.7 | > 30 | > 30 | – |
| CC1=CC(=O)[C@@](C)(O)C(=O)/C1=C\Nc1ccc(Oc2ccc(Cl)cc2)cc1 | > 30 | > 30 | > 30 | > 100 | > 30 | > 30 | – |
| CC1=CC(=O)[C@](C)(O)C(=O)/C1=C\Nc1ccc(Oc2ccc([N+](=O)[O-])cc2)cc1 | > 30 | > 30 | > 30 | 68.1 | > 30 | > 30 | – |
| CC1=CC(=O)[C@](C)(O)C(=O)/C1=C\Nc1ccc(Oc2ccc(Cl)cc2)cc1 | > 30 | > 30 | 17 | > 100 | > 30 | 9.5 | 1.7 |
| CC1=CC(=O)[C@@](C)(O)C(=O)/C1=C\Nc1ccc(Oc2ccc([N+](=O)[O-])cc2)cc1 | > 30 | > 30 | > 30 | > 100 | > 30 | > 30 | – |
| CC1=CC(=O)[C@](C)(O)C(=O)/C1=C\Nc1ccc(Oc2cccc(F)c2)cc1 | > 30 | > 30 | > 30 | > 100 | > 30 | 15.5 | > 1.9 |
| CC1=CC(=O)[C@@](C)(O)C(=O)/C1=C\Nc1ccc(Oc2cccc(F)c2)cc1 | > 30 | > 30 | > 30 | > 100 | > 30 | > 30 | – |
| CC1=CC(=O)[C@](C)(O)C(=O)/C1=C\Nc1ccccc1 | > 30 | > 30 | > 30 | > 100 | > 30 | > 30 | – |
| CC1=CC(=O)[C@](C)(O)C(=O)/C1=C\Nc1ccc(Cc2ccccc2)cc1 | > 30 | > 30 | 18.6 | 4.5 | > 30 | 5.6 | 3.3 |
| CC1=CC(=O)[C@@](C)(O)C(=O)/C1=C\Nc1ccc(Oc2ccc(C)cc2)cc1 | > 30 | > 30 | > 30 | > 100 | > 30 | > 30 | – |
| CC1=CC(=O)[C@@](C)(O)C(=O)/C1=C\Nc1ccc(Cc2ccccc2)cc1 | > 30 | > 30 | > 30 | > 100 | > 30 | > 30 | – |
| COc1cccc2c1C(=O)c1c(O)c3c(c(O)c1C2=O)C[C@@](O)(C(=O)CO)C[C@@H]3O[C@H]1C[C@H](N)[C@H](O)[C@H](C)O1 [DOXORUBICIN HYDROCHLORIDE] | 0.3 | 0.2 | – | – | 15.1 | – | – |
